Results from ChEMBL document CHEMBL1201862, “PubChem BioAssay data set” (2004).
Calls of active or inactive are those of the source.

Key:
[1] = target: Dual specificity tyrosine-phosphorylation-regulated kinase 1A (Rattus norvegicus, UniProt Q63470); format: biochemical, Homo sapiens
[2] = test system: Escherichia coli; test: microbe, parasite or virus in culture
[3] = target: Cytochrome P450 2C19 (Homo sapiens, UniProt P33261); test: Cytochrome panel assay with activity outcomes. Panel member name: p450-cyp2c19 Compounds with AC50 equal or less than 10 uM are considered active; format: functional
Chain of Cytochrome P450 2C19 (P33261 whole entry): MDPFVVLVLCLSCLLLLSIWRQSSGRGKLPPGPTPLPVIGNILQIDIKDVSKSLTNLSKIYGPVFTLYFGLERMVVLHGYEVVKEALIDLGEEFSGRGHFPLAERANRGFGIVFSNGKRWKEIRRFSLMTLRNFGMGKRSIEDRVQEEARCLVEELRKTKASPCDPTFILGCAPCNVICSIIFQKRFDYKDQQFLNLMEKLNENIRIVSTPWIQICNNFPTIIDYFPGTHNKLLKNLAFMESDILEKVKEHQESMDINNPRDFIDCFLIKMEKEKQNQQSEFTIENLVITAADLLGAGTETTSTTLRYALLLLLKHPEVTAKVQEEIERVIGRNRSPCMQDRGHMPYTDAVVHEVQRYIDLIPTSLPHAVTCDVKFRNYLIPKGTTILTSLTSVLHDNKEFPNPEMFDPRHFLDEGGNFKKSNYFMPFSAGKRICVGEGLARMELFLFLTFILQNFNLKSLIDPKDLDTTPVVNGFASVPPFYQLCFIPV

[4] = target: T1, Cytochrome P450 1A2 (Homo sapiens, UniProt P05177);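 also: PubChem cytochrome P450 panel assay, CYP1A2 panel member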
T1 sequence (P05177 whole entry): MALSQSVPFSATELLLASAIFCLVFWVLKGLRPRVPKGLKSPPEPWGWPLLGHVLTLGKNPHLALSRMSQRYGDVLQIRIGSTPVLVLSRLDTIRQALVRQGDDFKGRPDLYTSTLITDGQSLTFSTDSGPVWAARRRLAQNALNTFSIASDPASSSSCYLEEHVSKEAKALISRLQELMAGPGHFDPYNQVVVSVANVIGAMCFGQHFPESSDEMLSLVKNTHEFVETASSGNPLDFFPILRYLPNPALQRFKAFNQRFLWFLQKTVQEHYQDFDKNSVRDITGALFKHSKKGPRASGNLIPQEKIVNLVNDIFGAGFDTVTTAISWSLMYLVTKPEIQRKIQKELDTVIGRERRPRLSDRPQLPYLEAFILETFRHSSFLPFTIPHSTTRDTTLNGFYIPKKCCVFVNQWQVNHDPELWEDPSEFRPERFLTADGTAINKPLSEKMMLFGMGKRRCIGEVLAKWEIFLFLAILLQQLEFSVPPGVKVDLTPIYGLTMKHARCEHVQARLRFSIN

[5] = target: Cytochrome P450 3A4 (Homo sapiens, UniProt P08684);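 also: CYP3A4 tested as one member of a cytochrome P450 panel screen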
Chain of Cytochrome P450 3A4 (P08684 whole entry): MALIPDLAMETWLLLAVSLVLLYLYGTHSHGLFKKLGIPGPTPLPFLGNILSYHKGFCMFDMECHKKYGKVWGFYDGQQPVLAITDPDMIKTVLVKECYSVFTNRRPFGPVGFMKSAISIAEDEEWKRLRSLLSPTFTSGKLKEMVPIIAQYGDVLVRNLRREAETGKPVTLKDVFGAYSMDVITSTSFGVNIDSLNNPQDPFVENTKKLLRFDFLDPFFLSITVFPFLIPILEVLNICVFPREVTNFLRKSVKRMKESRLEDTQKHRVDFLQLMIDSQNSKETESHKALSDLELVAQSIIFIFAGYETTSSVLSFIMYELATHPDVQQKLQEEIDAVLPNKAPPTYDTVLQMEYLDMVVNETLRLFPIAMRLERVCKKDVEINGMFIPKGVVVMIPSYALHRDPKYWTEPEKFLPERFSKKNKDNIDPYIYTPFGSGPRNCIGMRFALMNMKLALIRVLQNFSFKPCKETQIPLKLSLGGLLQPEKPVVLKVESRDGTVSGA

[6] = Luminescence Cell-Based Dose Confirmation HTS to Identify Activators of 5'UTR Stem-Loop Driven Alpha-Synuclein mRNA Translation in H4 Neuroglioblastoma Cells. [Related pubchem assays: 1829 (Project Summary), 1814 (Primary HTS)]; format: functional
[7] = Luminescence Cell-Based Dose Response HTS to Identify Activators of Luciferase Translation or Activity in H4 […] Cells. [Related pubchem assays: 1829 (Project Summary), 1814 (Primary HTS)]; format: functional
[8] = test system: H4; test: Luminescence Cell-Based Dose Response HTS to Identify Activators of 5'UTR Stem-Loop Driven Prion Protein mRNA Translation in H4 Neuroglioblastoma Cells. [Related pubchem assays: 1829 (Project Summary), 1814 (Primary HTS)]; format: functional; conditions: Homo sapiens
[9] = target: T2, Heat shock factor protein 1 (Mus musculus, UniProt P38532); test: decrease of HSF1-responsive luciferase luminescence – cell-based, NIH3T3, dose retest, confirmation (AID 2382); format: functional;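 also: NIH3T3 fibroblasts with HSF1-driven luciferase reporter stressed by proteasome inhibitor MG132; luminescence from HSF1-driven luciferase expression after 8 hours of MG132 stress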
T2 sequence (P38532 whole entry): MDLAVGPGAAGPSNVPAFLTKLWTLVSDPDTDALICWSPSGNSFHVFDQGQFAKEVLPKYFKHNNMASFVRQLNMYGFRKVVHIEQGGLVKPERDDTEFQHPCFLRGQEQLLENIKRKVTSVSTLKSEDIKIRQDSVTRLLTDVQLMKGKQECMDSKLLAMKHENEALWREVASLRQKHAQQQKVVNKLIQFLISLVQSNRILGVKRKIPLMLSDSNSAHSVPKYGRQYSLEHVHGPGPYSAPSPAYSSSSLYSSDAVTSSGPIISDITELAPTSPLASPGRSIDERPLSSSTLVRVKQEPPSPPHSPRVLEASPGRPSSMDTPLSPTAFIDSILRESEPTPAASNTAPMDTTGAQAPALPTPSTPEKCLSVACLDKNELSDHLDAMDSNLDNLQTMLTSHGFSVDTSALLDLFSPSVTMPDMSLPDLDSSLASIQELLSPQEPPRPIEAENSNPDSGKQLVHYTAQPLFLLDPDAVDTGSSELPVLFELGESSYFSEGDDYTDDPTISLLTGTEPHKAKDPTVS

[10] = target: Cytochrome P450 2C9 (Homo sapiens, UniProt P11712)
Chain of Cytochrome P450 2C9 (P11712 whole entry): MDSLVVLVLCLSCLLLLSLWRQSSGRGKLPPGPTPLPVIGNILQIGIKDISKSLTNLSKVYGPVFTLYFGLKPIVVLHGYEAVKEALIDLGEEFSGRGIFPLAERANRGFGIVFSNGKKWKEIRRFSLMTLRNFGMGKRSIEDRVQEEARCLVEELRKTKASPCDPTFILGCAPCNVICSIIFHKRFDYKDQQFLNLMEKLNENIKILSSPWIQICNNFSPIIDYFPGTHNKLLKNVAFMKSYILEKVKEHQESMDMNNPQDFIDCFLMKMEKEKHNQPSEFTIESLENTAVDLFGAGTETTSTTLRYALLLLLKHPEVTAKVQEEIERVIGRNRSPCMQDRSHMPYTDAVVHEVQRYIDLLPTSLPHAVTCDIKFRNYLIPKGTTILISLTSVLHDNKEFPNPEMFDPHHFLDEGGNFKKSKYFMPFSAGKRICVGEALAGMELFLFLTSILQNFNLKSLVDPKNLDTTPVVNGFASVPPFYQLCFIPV

With `O=C(/C=C/c1ccccc1)Nc1cccnc1Oc1ccccc1F` the AC50 [1] was 11.1 µM (active).
For `Cc1cccc(/C=N/NC(=O)c2cc(C3CC3)nc3ccccc23)n1`, the AC50 [2] was 37.9 µM (active).
With `CC(=O)O[C@H]1CC[C@@]2(C)[C@@H](CC[C@H]3[C@H]2CC(=O)[C@]2(C)[C@@H]3C[C@@H](N3CC3)[C@H]2C(C)=O)C1` the AC50 [3] was “inconclusive”, the AC50 [4] was 0.0398 µM (inconclusive) and the AC50 [5] was “inconclusive”.
For `Cc1ccc(N2CN=c3s/c(=C\c4ccccn4)c(=O)n3C2)cc1`, the EC50 [6] was > 120 µM (not active), the EC50 [7] was 29.5 µM (active) and the EC50 [8] was > 120 µM (not active). The EC50 [9] was > 195 µM (not active) and the AC50 [1] was 3.58 µM (active).
In the case of `Oc1ccc(/C=N/n2c(-c3ccccc3)n[nH]c2=S)cc1`, the AC50 [1] is reported as 4.2 µM (active).
With `Oc1ccc(/C=N/n2c(S)nnc2-c2ccccc2)cc1Br` the AC50 [1] was 11.8 µM (active).
In the case of `C=CCN1CCc2c(cc(O)c(O)c2Cl)[C@H](c2ccccc2)C1`, the AC50 [4] is reported as 20 µM (inconclusive), the AC50 [10] is reported as 31.6 µM (inconclusive) and the AC50 [5] is reported as “inconclusive”.
